Several values for one entry are separate records, joined by “and”; a condition that tells them apart may be missing. Equal values may be shown once. Entries after “also recorded” stand apart in the source; their conditions may differ.
Columns and labels:
ALMS patients [1] = experiment: Liver stiffness by transient elastography (FibroScan) and Metavir score, Phase 2 open-label study; type: in vivo, human; settings: for Change from Baseline Transient Elastography, Mean (SD) / Change from Baseline Transient Elastography, Median / Transient Elastography Score / Metavir Score (F): 800 mg daily oral
Protocol: The study was a Phase 2, single-centre, single-arm, open-label study of sodium 2-(3-pentylphenyl)acetate administered at a total daily oral dose of 800 mg for up to 72 weeks in subjects with ALMS was undertaken. The initial duration of the study was 24 weeks, and subjects were offered to enrol into an extension phase of 36 or 48 weeks. The schedule of study procedures for the enrolment, intervention, and assessments for participants is outlined in FIG. 1. Sodium 2-(3-pentylphenyl)acetate was formulated in soft gelatine capsules containing 200 mg of Sodium 2-(3-pentylphenyl)acetate (amorphous powder) per capsule, polyethylene glycol 400, National Formulary (NF), hydrochloric acid (for pH adjustment), and water. A total of 15 subjects participated in the study. […] Twelve (12) subjects met the eligibility criteria and received at least 1 dose of 800 mg sodium 2-(3-pentylphenyl)acetate, with all 12 subjects completing the initial 24-week treatment period as planned. A 36-week EP was added to the study protocol (Table 1). Ten (10) of the 12 subjects who completed the initial 24-week study drug treatment period continued in the EP, with 6 subjects having a break in treatment until the amendment was implemented before continuing treatment in the EP and 4 subjects continuing in the EP without any break in treatment. Two subjects (826-001-002 and 826-001-014) completed the study after the initial 24-week study drug treatment period. The effect of sodium 2-(3-pentylphenyl)acetate on liver histology in ALMS patients was first assessed by measuring liver stiffness. Liver stiffness is a physical parameter that reflects the health of the liver and is commonly used to diagnose liver diseases. Increased liver stiffness may be associated with hepatic dysfunction.

ALMS patients [2] = experiment: Cardiac MRI of left ventricular function (LVESV, LVEDV); type: in vivo, human; settings: for Change from Baseline LVEDV, Mean (SD) / Change from Baseline LVEDV, Median / Change from Baseline LVESV, Mean (SD) / Change from Baseline LVESV, Median: 800 mg daily oral
Protocol: The study was a Phase 2, single-centre, single-arm, open-label study of sodium 2-(3-pentylphenyl)acetate administered at a total daily oral dose of 800 mg for up to 72 weeks in subjects with ALMS was undertaken. The initial duration of the study was 24 weeks, and subjects were offered to enrol into an extension phase of 36 or 48 weeks. The schedule of study procedures for the enrolment, intervention, and assessments for participants is outlined in FIG. 1.
Sodium 2-(3-pentylphenyl)acetate was formulated in soft gelatine capsules containing 200 mg of Sodium 2-(3-pentylphenyl)acetate (amorphous powder) per capsule, polyethylene glycol 400, National Formulary (NF), hydrochloric acid (for pH adjustment), and water.
The effect of sodium 2-(3-pentylphenyl)acetate on heart histology in ALMS patients was assessed by measuring left ventricular function (LVF). LVF measurements permit to quantify how well the left ventricle is able to pump blood through the body with each heartbeat, and is also a prognostic factor in acute myocardial infarction.

[3] = individual subjects, EP Week 12 (Week 36)
[4] = individual subjects, EP Week 24 (Week 48)
[5] = individual subjects, EP Week 36 (Week 60)

CCCCCc1cccc(CC(=O)[O-])c1.[Na+] [sodium 2-(3-pentylphenyl)acetate]
subjects in whom liver stiffness decreased from baseline (ALMS patients [1]; 8/11 subjects, after treatment with 800 mg): 72.3% | Change from Baseline Transient Elastography, Mean (SD) (ALMS patients [1]; EP Week 12 (Week 36), N=10): −1.41 (2.585) kPa | Change from Baseline Transient Elastography, Median (ALMS patients [1]; EP Week 12 (Week 36), N=10): −1.75 kPa | Change from Baseline Transient Elastography, Mean (SD) (ALMS patients [1]; EP Week 24 (Week 48), N=10): −1.49 (2.335) kPa | Change from Baseline Transient Elastography, Median (ALMS patients [1]; EP Week 24 (Week 48), N=10): −1.45 kPa | Change from Baseline Transient Elastography, Mean (SD) (ALMS patients [1]; EP Week 36 (Week 60), N=9): −2.59 (2.703) kPa | Change from Baseline Transient Elastography, Median (ALMS patients [1]; EP Week 36 (Week 60), N=9): −2.30 kPa | largest increase in liver stiffness from baseline (ALMS patients [1]; Subject 826-001-013, 30-day break in treatment): 1.8 kPa | Metavir score at Week 60 (ALMS patients [1]; Subject 826-001-015, baseline F4): F0/1 (Metavir score F0-F1: absence or mild fibrosis (2.5-7.0 kPa on FibroScan ®)) | number of subjects with at least a 1-grade reduction in liver fibrosis (Metavir scoring system) (ALMS patients [1]; Subjects 826-001-001, -004, -012, -015): 4 subjects | Change from Baseline Transient Elastography, Mean (SD) (ALMS patients [1]; Week 12, N=11): −1.19 (2.160) kPa | Change from Baseline Transient Elastography, Median (ALMS patients [1]; Week 12, N=11): −1.50 kPa | Change from Baseline Transient Elastography, Mean (SD) (ALMS patients [1]; Week 24, N=11): −1.01 (2.308) kPa | Change from Baseline Transient Elastography, Median (ALMS patients [1]; Week 24, N=11): −0.70 kPa | decrease in liver stiffness from baseline (mean) (ALMS patients [1]; after 60 weeks of treatment, p=0.0207): 2.59 kPa | Transient Elastography Score (ALMS patients [1]; individual subjects (one line per subject), Week 12): 7.1 kPa and 6.1 kPa and 4.5 kPa and 5.3 kPa and 3.1 kPa and 10.5 kPa and 19.6 kPa and 7.8 kPa and 12.2 kPa and 12.0 kPa and 50.5 kPa and 7.7 kPa | Metavir Score (F) (ALMS patients [1]; [3]): (F0/1) (Metavir score F0-F1: absence or mild fibrosis (2.5-7.0 kPa on FibroScan ®)); also recorded: (F2) (Metavir score F2: significant fibrosis ≥ 7.1 to < 9.5 kPa on FibroScan ®)); also recorded: (F4) (Metavir score F4: cirrhosis( ≥ 12.5 kPa on FibroScan ®)); also recorded: (F3) (Metavir score F3: severe fibrosis ≥ 9.5 to < 12.5 kPa on FibroScan ®) | Transient Elastography Score (ALMS patients [1]; [3]): 6.6 kPa and 4.2 kPa and 6.5 kPa and 4.6 kPa and 8.9 kPa and 18.6 kPa and 5.8 kPa and 10.2 kPa and 14.7 kPa and 7.4 kPa | Metavir Score (F) (ALMS patients [1]; [4]): (F2) (Metavir score F2: significant fibrosis ≥ 7.1 to < 9.5 kPa on FibroScan ®)); also recorded: (F0/1) (Metavir score F0-F1: absence or mild fibrosis (2.5-7.0 kPa on FibroScan ®)); also recorded: (F4) (Metavir score F4: cirrhosis( ≥ 12.5 kPa on FibroScan ®)); also recorded: (F3) (Metavir score F3: severe fibrosis ≥ 9.5 to < 12.5 kPa on FibroScan ®) | Transient Elastography Score (ALMS patients [1]; [4]): 7.1 kPa and 4.1 kPa and 4.7 kPa and 5.1 kPa and 7.5 kPa and 21.6 kPa and 5.0 kPa and 12.1 kPa and 12.6 kPa and 6.9 kPa | Metavir Score (F) (ALMS patients [1]; [5]): (F2) (Metavir score F2: significant fibrosis ≥ 7.1 to < 9.5 kPa on FibroScan ®)); also recorded: (F0/1) (Metavir score F0-F1: absence or mild fibrosis (2.5-7.0 kPa on FibroScan ®)); also recorded: (F4) (Metavir score F4: cirrhosis( ≥ 12.5 kPa on FibroScan ®)); also recorded: (F3) (Metavir score F3: severe fibrosis ≥ 9.5 to < 12.5 kPa on FibroScan ®) | Transient Elastography Score (ALMS patients [1]; [5]): 7.8 kPa and 3.8 kPa and 5.0 kPa and 3.9 kPa and 17.1 kPa and 6.0 kPa and 8.6 kPa and 12.2 kPa and 5.1 kPa | Metavir Score (F) (ALMS patients [1]; individual subjects, Week 12): (F2) (Metavir score F2: significant fibrosis ≥ 7.1 to < 9.5 kPa on FibroScan ®)); also recorded: (F0/1) (Metavir score F0-F1: absence or mild fibrosis (2.5-7.0 kPa on FibroScan ®)); also recorded: (F3) (Metavir score F3: severe fibrosis ≥ 9.5 to < 12.5 kPa on FibroScan ®); also recorded: (F4) (Metavir score F4: cirrhosis( ≥ 12.5 kPa on FibroScan ®)) | Metavir Score (F) (ALMS patients [1]; individual subjects, Week 24): (F2) (Metavir score F2: significant fibrosis ≥ 7.1 to < 9.5 kPa on FibroScan ®)); also recorded: (F0/1) (Metavir score F0-F1: absence or mild fibrosis (2.5-7.0 kPa on FibroScan ®)); also recorded: (F4) (Metavir score F4: cirrhosis( ≥ 12.5 kPa on FibroScan ®)) | Transient Elastography Score (ALMS patients [1]; individual subjects, Week 24): 7.2 kPa and 7.6 kPa and 5.9 kPa and 5.2 kPa and 4.6 kPa and 8.1 kPa and 21.8 kPa and 5.6 kPa and 8.6 kPa and 14.3 kPa and 48.9 kPa and 9.0 kPa | subjects in whom LVESV increased or did not change from baseline (ALMS patients [2]; 9/12 subjects): 75.0% | subjects in whom LVEDV increased from baseline (ALMS patients [2]; 10/12 subjects): 83.3% | Change from Baseline LVEDV, Mean (SD) (ALMS patients [2]; EP Week 36 (Week 60), N=4): 7.75 (3.948) mL | Change from Baseline LVEDV, Median (ALMS patients [2]; EP Week 36 (Week 60), N=4): 8.50 mL | Change from Baseline LVESV, Mean (SD) (ALMS patients [2]; EP Week 36 (Week 60), N=4): 3.75 (2.500) mL | Change from Baseline LVESV, Median (ALMS patients [2]; EP Week 36 (Week 60), N=4): 3.50 mL | Change from Baseline LVEDV, Mean (SD) (ALMS patients [2]; Week 24, N=10): 4.40 (16.574) mL | Change from Baseline LVEDV, Median (ALMS patients [2]; Week 24, N=10): 5.00 mL | Change from Baseline LVESV, Mean (SD) (ALMS patients [2]; Week 24, N=10): 0.70 (9.650) mL | Change from Baseline LVESV, Median (ALMS patients [2]; Week 24, N=10): 3.00 mL | change in LVESV from baseline (ALMS patients [2]; after 60 weeks of treatment): strong trend toward an increase | mean increase in LVEDV from baseline (ALMS patients [2]; after 60 weeks of treatment, p=0.0294): 7.75 mL | LVESV relative to normal range (ALMS patients [2]; subject 826-001-015): Normalization of LVESV after treatment | LVEDV and LVESV relative to normal range (ALMS patients [2]; subjects 826-001-002 and 826-001-004, below normal at baseline): within the normal range after the treatment period

Reference: patent publication US20220016060A1, “USE OF SODIUM 2-(3-PENTYLPHENYL)ACETATE IN THE TREATMENT OF ALSTRÖM SYNDROME” (LIMINAL BIOSCIENCES LIMITED, priority 2018, published 2022)
